{
  "source": "paper PMC8920379",
  "about": "“The discovery of berberine erythrocyte-hemoglobin self-assembly delivery system: a neglected carrier underlying its pharmacokinetics” (Drug Delivery, 2022)",
  "system": "30% erythrocytes",
  "assay": "Berberine loading of erythrocytes (loading efficiency)",
  "assay_type": "in vitro ADME, rats",
  "conditions": "37 °C, 2 h, n = 3",
  "protocol": "The whole blood was collected from rats by orbital plexus vein and transferred into a blood-collection tube containing ethylene diamine tetraacetic acid (EDTA) as an anticoagulant. The whole blood was centrifuged at 3000 rpm for 10 min. The plasma and the buffy coat in the supernatant were removed by aspiration, and erythrocytes were washed three times in cold phosphate buffer saline (PBS) and centrifuged for 10 min at 3000 rpm, and then resuspended in an appropriate volume of PBS.\nIn order to determine the effect of BBR concentration on loading efficiency, different concentrations (1.000, 0.100, 0.010 and 0.001 M) of BBR were comparatively used at 37 °C for fixed incubation time (2 h) to obtain the more suitable concentration for the loading process. The hematocrite of washed erythrocytes was adjusted by PBS to 30%. In the 5-mL Eppendorf tubes, 1 mL of 30% erythrocytes was added to 1 mL PBS containing the known concentration of the agent. The final concentrations of BBR in the reaction system were […] (185, 18.5, 1.85 and 0.185 μg/mL), respectively. The mixtures were gently mixed to avoid hemolysis and incubated for 2 h at 37 °C. After incubation, the erythrocytes suspension was centrifuged for 10 min at 3000 rpm and the supernatant was collected.\nIn order to verify the binding system, the supernatant was analyzed by quantifying the amount of unbound BBR through HPLC. In order to offset this effect, an internal standard method was employed in this study and piperine was chosen as the internal standard substance (200 μg/mL). Different known concentrations (500.00, 100.00, 20.00, 4.00, 0.80, 0.16 μg/mL) of BBR and piperine were used to create the standard curve. The peak area of each concentration with the concentration of piperine was measured 3 times. And then, the calibration curves were prepared using linear regression of known drug concentration versus peak area. The unknown concentration of BBR was analyzed by the regressed equation: y = a(x) + b. While y is the peak area ratio of BBR and piperine, a is the slope, b is the y-intercept, and x is the concentration of BBR.\nAfter incubation, acetonitrile was added to the different incubated solutions for protein precipitation. The mixtures were centrifuged at 8000 rpm for 10 min. The supernatants were collected and dried. The eluates were concentrated and re-dissolved for analysis. The loading efficiency was calculated according to the following formula: Loading efficiency (%) = [(Moriginal drug−Mdrug after incubation)/Moriginal drug] ×100%",
  "key": {"[1]": {"conditions": "BBR 0.185 μg/mL in BBR-erythrocyte system"}, "[2]": {"conditions": "BBR 1.850 μg/mL in BBR-erythrocyte system"}, "[3]": {"conditions": "BBR 18.500 μg/mL in BBR-erythrocyte system"}},
  "note": "Where “and” joins values, the source holds several entries; their conditions need not be identical. Equal entries are not always repeated.",
  "data": [
    {"smiles": "COc1ccc2cc3[n+](cc2c1OC)CCc1cc2c(cc1-3)OCO2", "note": "[BBR, Berberine]", "values": [
      {"measurement": "Extracellular BBR concentration after incubation", "setting": "[1]", "value": "0 ± 0.051", "unit": "µg/mL"},
      {"measurement": "Loading percentage", "setting": "[1]", "value": "100% and 100 ± 19.84%"},
      {"measurement": "Extracellular BBR concentration after incubation", "setting": "[2]", "value": "0.115 ± 0.072", "unit": "µg/mL"},
      {"measurement": "Loading percentage", "setting": "[2]", "value": "95.528 ± 2.622", "unit": "%"},
      {"measurement": "Extracellular BBR concentration after incubation", "setting": "[3]", "value": "2.288 ± 0.105", "unit": "µg/mL"},
      {"measurement": "Loading percentage", "setting": "[3]", "value": "88.772 ± 0.410", "unit": "%"}
    ]}
  ]
}
